Data on 92 compounds can be found in PubChem BioAssay AID602235 (The Scripps Research Institute Molecular Screening Center, 2012).

The structures appear in SMILES notation. pIC50: −log10 of the molar value. The source made the active and inactive calls. The rule behind the calls is not given here. A value given as a limit tells only on which side of the number the result lay.

Nuclear receptor coactivator 1 (Homo sapiens), sequence (Q15788 whole entry, looked up): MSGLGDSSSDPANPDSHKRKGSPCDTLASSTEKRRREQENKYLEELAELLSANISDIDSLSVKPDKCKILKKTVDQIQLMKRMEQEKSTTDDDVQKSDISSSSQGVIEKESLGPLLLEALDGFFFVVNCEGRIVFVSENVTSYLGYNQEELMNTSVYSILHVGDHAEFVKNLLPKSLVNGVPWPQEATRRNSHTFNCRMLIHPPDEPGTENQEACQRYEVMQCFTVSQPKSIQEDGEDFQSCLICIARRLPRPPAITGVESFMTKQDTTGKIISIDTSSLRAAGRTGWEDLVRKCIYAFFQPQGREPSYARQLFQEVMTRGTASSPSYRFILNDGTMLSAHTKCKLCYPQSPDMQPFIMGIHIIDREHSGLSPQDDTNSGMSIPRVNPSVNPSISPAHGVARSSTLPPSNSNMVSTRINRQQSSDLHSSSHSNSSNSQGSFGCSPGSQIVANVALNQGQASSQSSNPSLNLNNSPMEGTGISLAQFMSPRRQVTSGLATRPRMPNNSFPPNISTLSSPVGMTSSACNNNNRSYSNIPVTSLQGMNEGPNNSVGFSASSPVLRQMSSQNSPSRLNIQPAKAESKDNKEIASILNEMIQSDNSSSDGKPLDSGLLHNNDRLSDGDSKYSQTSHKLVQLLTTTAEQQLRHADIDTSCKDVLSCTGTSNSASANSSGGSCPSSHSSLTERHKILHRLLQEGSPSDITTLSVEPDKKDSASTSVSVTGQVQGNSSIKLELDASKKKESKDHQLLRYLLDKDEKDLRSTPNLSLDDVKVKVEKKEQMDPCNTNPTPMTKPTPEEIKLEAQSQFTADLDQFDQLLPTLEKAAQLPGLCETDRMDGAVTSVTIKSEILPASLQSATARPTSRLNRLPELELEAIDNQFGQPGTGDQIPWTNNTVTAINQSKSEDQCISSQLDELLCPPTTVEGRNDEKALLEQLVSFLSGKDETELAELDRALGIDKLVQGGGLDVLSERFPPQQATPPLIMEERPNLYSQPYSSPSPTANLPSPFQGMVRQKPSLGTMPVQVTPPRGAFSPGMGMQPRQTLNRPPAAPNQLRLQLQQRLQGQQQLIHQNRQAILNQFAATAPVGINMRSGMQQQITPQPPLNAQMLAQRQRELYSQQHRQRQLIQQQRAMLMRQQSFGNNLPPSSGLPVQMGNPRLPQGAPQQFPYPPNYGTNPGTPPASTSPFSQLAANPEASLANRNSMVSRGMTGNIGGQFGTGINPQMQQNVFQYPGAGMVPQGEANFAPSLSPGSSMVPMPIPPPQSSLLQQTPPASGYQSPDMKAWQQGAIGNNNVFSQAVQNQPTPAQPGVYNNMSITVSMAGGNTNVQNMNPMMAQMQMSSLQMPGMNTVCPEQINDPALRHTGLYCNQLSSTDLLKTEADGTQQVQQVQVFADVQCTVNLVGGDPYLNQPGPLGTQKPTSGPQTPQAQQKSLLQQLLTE

The experiment addresses Nuclear receptor coactivator 1 (Homo sapiens) (UniProt Q15788). In words: inhibition of NCOA1 transcriptional coactivation in cells – cell-based, luciferase reporter, luminescence, dose response (AID 602235).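 Note: cells transfected with pGL4.31 reporter plus pBIND-SRC1 vector; potency is for inhibitors that lower SRC1 reporter luminescence.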 Particulars: cell-based SRC1 luciferase reporter. On the technique in general: A reporter such as luciferase makes a cellular process visible.
One may read the IC50 as the concentration needed to halve the response being measured. As for `O=C(Nc1cccnc1)c1ccc(C(=O)Nc2cccnc2)cc1`, the IC50 was > 35.9 µM (inactive).

In the case of `CN1CCN(c2cccc3c2C(=O)c2ccccc2C3=O)CC1`, the IC50 is > 35.9 µM (inactive).

Take `COc1cc(OC)c2cc(C(=O)N/N=C/c3cccc(OC)c3O)[nH]c2c1`: the IC50 result was “inactive”.

Regarding `CC(=O)NC(c1cc(Cl)c2cccnc2c1O)C(C)C` (configuration not stated), the IC50 is > 35.9 µM (inactive).

One may read the pIC50 as −log10 of the IC50, conventionally taken in molar units. With `Fc1ccc(CSc2nnc(-c3ccncc3)o2)cc1`, the pIC50 is 5.22.

Turning to `CCC(=O)Oc1c(C(=O)CC)cc2c(C)cc(=O)oc2c1C`, the IC50 was > 35.8 µM (inactive).

`C=C1C(=O)[C@@]23C[C@H]4[C@@H]5[C@@]6(C)CCC[C@@]57[C@@H]2[C@@H](O)[C@@H]1C[C@H]3[C@H]7N4C6`: the pIC50 is 5.43.

For `COc1ccc(Nc2ncnc3ccc(Br)cc23)c(OC)c1`, the pIC50 was 5.61.

For `COc1ccc2c(c1)-c1c(ssc1=S)C(C)(C)N2C(=O)CSC1=NCCS1`, the IC50 entry was “inactive”.

On to `Cc1cccc(C)c1-n1nnnc1C(c1cccs1)N1CCC2(CC1)C(=O)NCN2c1ccccc1` (configuration not stated), for which the IC50 result was “inactive”.

Consider `Cc1ccc(/C=C2\SC(=S)N(CCCC(=O)NC3CCCC3)C2=O)cc1`, for which the pIC50 was 5.47.

For the compound `CC(C)n1c(-c2cccnc2)nc2cnccc21`, the IC50 result was “inactive”.

For `Nc1ccc(Oc2ccccc2-c2ccccc2)cc1`, the IC50 result is “inactive”.

As to `c1nc2sc3c(c2c2nnnn12)CCCC3`, the IC50 entry was “inactive”.

Regarding `O=C(CCC1CCCC1)Nc1ccc(C(=O)NCc2cccnc2)cc1`, the negative-log IC50 (pIC50) was 5.41.

In the case of `N#Cc1c(-c2ccccc2)c(C#N)c2nc3ccccc3n2c1N`, the IC50 is > 35.9 µM (inactive).

Consider `CCn1ccnc1CN(C)Cc1cn[nH]c1-c1ccc(F)cc1F`, for which the IC50 result is “inactive”.

Turning to `CCCS(=O)(=O)c1c(S(=O)(=O)CCC)c2c(C)cccn2c1C(=O)N/N=C/c1cc(O)cc(O)c1`, the IC50 entry is “inactive”.

Turning to `Cc1ccc(OCC(=O)c2cc(C)n(Cc3cccs3)c2C)c([N+](=O)[O-])n1`, the IC50 was > 35.9 µM (inactive).

On to `Cc1ccc(NC(=O)NC2CC(=O)N(c3ccc4c(c3)OCCO4)C2)cc1C` (configuration not stated), for which the pIC50 is 5.22.

Take `COc1ccc(Oc2nc3c(c(=O)n(C)c(=O)n3C)n2C)cc1`: the IC50 result is “inactive”.

On to `Cc1nc2c(-c3ccc(F)cc3)cnn2c(N)c1-c1ccccc1`, for which the IC50 result is “inactive”.

As for `COc1ccccc1/C=C\C(=O)NCC(=O)N/N=C/c1cccc(OC)c1O`, the IC50 result was “inactive”.

`CCN(CC)CCNC(=O)c1ccc(NC(=O)C2CCN(c3ncnc4sc(C)c(C)c34)CC2)cc1`: the pIC50 was 5.27.

As for `Cc1nn(C(C)(C)C)c(C)c1/C=N/OC(=O)Nc1ccc(Cl)c(Cl)c1`, the IC50 entry was “inactive”.

With `CN(Cc1cnc2nc(N)nc(N)c2n1)c1ccc(C(=O)N[C@@H](CCC(=O)O)C(=O)O)cc1`, the IC50 is > 35.9 µM (inactive).

`O=C(Nc1ccncc1)c1ccccc1[N+](=O)[O-]`: the pIC50 is 5.02.

Turning to `O=C(c1ccncc1)N(Cc1cc2ccccc2[nH]c1=O)C1CCCCC1`, the IC50 result is “inactive”.

Regarding `CCCCC(=O)Nc1cccn2ncnc12`, the IC50 result is “inactive”.

With `Cc1cccc(C)c1-c1ccc(CN2C(CC(C)C)C(=O)N(Cc3cn(CC4CCCCC4)nn3)CCS2(=O)=O)cc1` (configuration not stated), the IC50 result was “inactive”.

For `CCc1ccc(-c2nc(CSCC(=O)NCc3ccco3)c(C)o2)cc1`, the IC50 was > 35.9 µM (inactive).

In the case of `O=C(Nc1nc(-c2ccccn2)cs1)c1cccc(S(=O)(=O)N2CCOCC2)c1`, the IC50 entry was “inactive”.

Take `O=C(Nc1cccc(C(F)(F)F)c1)Nc1nnc([C@@H]2C[C@H](O)[C@@H](CO)O2)s1`: the pIC50 is 5.02.

As to `COc1cc(C(=O)NC(=S)NNC(=O)c2cnccn2)cc(OC)c1OC`, the IC50 entry was “inactive”.

As to `COc1ccccc1NS(=O)(=O)c1cccc(NC(=O)c2cncc(Br)c2)c1`, the IC50 entry is “inactive”.

On to `Cc1cccn2c(=O)c3cc(C(=O)NCCN4CCOCC4)c(=N)n(Cc4cccnc4)c3nc12`, for which the IC50 result was “inactive”.

For `N#Cc1cc2ccncc2c2ccccc12`, the IC50 was > 35.9 µM (inactive).

On to `CCOc1ccccc1-n1c(SCC(=O)Nc2ccccc2C(=O)O)nc2ccccc2c1=O`, for which the IC50 is > 35.9 µM (inactive).

Turning to `COC(=O)c1sc2cnccc2c1N`, the IC50 result is “inactive”.

For the compound `Cc1ccc(O)c(C(=O)c2cnn(C(=O)COc3ccc(Cl)cc3)c2)c1`, the IC50 entry was “inactive”.

As to `Cc1cc(=O)[nH]c(Nc2cccc(Br)c2)n1`, the IC50 result is “inactive”.

On to `Cc1nc2c(-c3ccc(Cl)cc3)c(C)[nH]n2c(=O)c1Cc1ccccc1`, for which the pIC50 was 5.03.

For the compound `CC1CCN(C(=O)c2scc3c2OCCO3)CC1`, the IC50 entry is “inactive”.

Take `Cc1nc2ccccn2c1-c1ccnc(=S)[nH]1`: the negative-log IC50 (pIC50) is 5.20.

Consider `O=C(CCl)N1N=C(c2cccs2)CC1c1ccco1` (configuration not stated), for which the IC50 was > 35.9 µM (inactive).

`COc1ccc(-c2cc(=O)oc3c(C)c(O)c(CN(C)C)cc23)cc1`: the IC50 entry was “inactive”.

For the compound `CN(Cc1cnc2nc(N)nc(N)c2n1)c1ccc(C(=O)NC(CCC(=O)O)C(=O)O)c2ccccc12` (configuration not stated), the IC50 was > 35.9 µM (inactive).

`O=C(CSc1nc(-c2cccs2)cc(C(F)(F)F)n1)Nc1cc(OCC(F)(F)C(F)F)cc([N+](=O)[O-])c1`: the IC50 was > 35.9 µM (inactive).

Consider `S=C(c1ccc(-c2ccccc2)cc1)N1CCOCC1`, for which the IC50 is > 35.8 µM (inactive).

For `NNC(=O)c1cc2ccccc2cc1O`, the pIC50 is 5.15.

As to `CCc1c(C)nc2c(C)cccc2c1SCCC#N`, the IC50 was > 35.9 µM (inactive).

`COc1cccc(/C=N/NC(=O)CNC(=O)C2COc3ccccc3O2)c1O` (configuration not stated): the IC50 result was “inactive”.

Take `Cc1ccc(C(=O)Nc2sc(C)c(-c3ccccc3)c2C(N)=O)cc1[N+](=O)[O-]`: the IC50 is > 35.9 µM (inactive).

`Cc1ccc(C)c(NC(=O)c2ccccc2NS(=O)(=O)c2cc([N+](=O)[O-])ccc2C)c1`: the pIC50 was 5.32.

Take `COc1cc2c(cc1OC)C(C)N(C(=O)c1cccc([N+](=O)[O-])c1)CC2` (configuration not stated): the IC50 entry was “inactive”.

As for `Cc1ccc(N(Cc2cc(=O)[nH]c3ccccc23)C(=O)CCl)c(C)c1`, the pIC50 is 5.27.

Turning to `Cn1c(=O)c2[nH]c(COc3ccc(C(C)(C)C)cc3)nc2n(C)c1=O`, the IC50 entry was “inactive”.

Take `Cc1c(C(=O)N/N=C/C(C)C)[nH]c2ccc([N+](=O)[O-])cc12`: the IC50 result was “inactive”.

In the case of `O=C(NC1CCCCC1)C(c1cccnc1)N(C(=O)CCl)c1cccc(Cl)c1` (configuration not stated), the negative-log IC50 (pIC50) was 5.16.

Take `COc1ccc(-c2ncncc2-c2ccccc2)c(O)c1`: the IC50 entry is “inactive”.

Consider `CC(C)(C)NC(=O)C1(C)CCC(=O)N1CCCn1ccnc1` (configuration not stated), for which the IC50 result is “inactive”.

Regarding `Cc1ccc2occ(/C=N/NC(=O)[C@@H](N)Cc3ccccc3)c(=O)c2c1`, the pIC50 was 5.09.

For the compound `O=C(N/N=C(\c1ccccc1)c1ccccn1)c1ccccc1Cl`, the IC50 entry is “inactive”.

In the case of `Nc1ccn([C@@H]2O[C@H](CO)[C@@H](O)C2O)c(=O)n1` (some centres not stated), the IC50 result is “inactive”.

On to `Cn1nc(C(F)(F)F)c(C#N)c1N1CCN(c2ccc(F)cc2)CC1`, for which the pIC50 is 5.03.

Consider `Cc1cc(C)nc(SCc2ccc(C(=O)N/N=C/c3cccc(O)c3O)cc2)n1`, for which the pIC50 was 5.29.

For the compound `CCOC(=O)c1cccc2c1-c1ccccc1/C2=N/O`, the pIC50 is 5.15.

For the compound `O=C(O)c1ccccc1C(=O)Nc1ccc(Oc2cccc3ccccc23)cc1`, the IC50 is > 35.9 µM (inactive).

For `COc1cc2c3c([nH]c2cc1F)C(=O)NCC3`, the pIC50 was 5.02.

Turning to `CCOc1ccc(/C=C2\SC(=S)N(CCC(=O)O)C2=O)cc1`, the IC50 was > 35.9 µM (inactive).

In the case of `N#Cc1c2ccc(O)cc2n2ccccc12`, the IC50 is > 35.9 µM (inactive).

Take `COc1ccc(CNc2ncc(-c3ccc(F)cc3)n2C)c2ccccc12`: the IC50 result is “inactive”.

As for `CCCCC(CC)COCCCN=Cc1c(O)[nH]c(=S)[nH]c1=O` (configuration not stated), the IC50 entry is “inactive”.

On to `COc1ccc(-n2cnc3c(sc4nccc(N(C)C)c43)c2=O)cc1`, for which the IC50 entry was “inactive”.

In the case of `Cc1cc(/C=C2\Cc3ccccc3C2=O)c(C)n1-c1ccccc1`, the IC50 was > 35.9 µM (inactive).

`COc1ccc(NC(=O)CN(C)C(=O)C2(c3ccccc3)CCCC2)cc1`: the IC50 result is “inactive”.

In the case of `COc1ccc(C(O)(C(C)C)C(CN2CCOCC2)c2ccc(Cl)cc2)cc1` (configuration not stated), the IC50 entry is “inactive”.

Turning to `CCC(C)(C)n1nnnc1CN1CCC(n2c(C)nc3cc(C(F)(F)F)ccc32)CC1`, the IC50 is > 35.9 µM (inactive).

Take `O=C(N/N=C/c1cc([N+](=O)[O-])ccc1O)c1cccc(N2CCCC2=O)c1`: the IC50 result is “inactive”.

Take `CCN(C(=O)c1cccc(S(=O)(=O)N(C)C)c1)C12CC3CC(CC(C3)C1)C2`: the IC50 was > 35.9 µM (inactive).

Regarding `CCOc1cc(C(N)=O)cc(Br)c1OC`, the IC50 result was “inactive”.

On to `Cc1ccc2occ(/C=N/NC(=O)c3ccncc3)c(=O)c2c1`, for which the IC50 entry is “inactive”.

`Cc1c(CC(=O)NCCCC(=O)O)c(=O)oc2cc3c(cc12)CCC(C)(C)O3`: the IC50 entry was “inactive”.

For the compound `OCCN1CCN(C(=S)c2ccc(-c3ccccc3)cc2)CC1`, the IC50 is > 35.9 µM (inactive).

In the case of `COc1ccc2c(=O)cc(-c3ccncc3)oc2c1OC`, the IC50 entry is “inactive”.

For `COc1cc(/C=C2\CC(C(C)(C)C)C/C(=C\c3cc(OC)c(OC)c(OC)c3)C2=O)cc(OC)c1OC` (configuration not stated), the IC50 is > 35.9 µM (inactive).

For `COC(=O)c1cccc2c1-c1ccccc1/C2=N/O`, the pIC50 was 5.01.

Turning to `CNc1ncnc(Sc2nc(N)nc3nc[nH]c23)c1[N+](=O)[O-]`, the IC50 was > 35.9 µM (inactive).

On to `C=CCn1c(Oc2ccccc2F)nc2c1c(=O)n(C)c(=O)n2C`, for which the IC50 result is “inactive”.

As for `COc1cccc(CNc2ncnc3ccc(-c4c(C)noc4C)cc23)c1`, the IC50 was > 35.9 µM (inactive).

As to `NC(=S)NN=Cc1nccc2c(N)cccc12`, the IC50 entry was “inactive”.

Consider `Cc1sc2ncnc(N3CCC(C(=O)N(C)CC(=O)Nc4cccc(F)c4)CC3)c2c1C`, for which the IC50 was > 12 µM (inactive).
